Results as given in ChEMBL document CHEMBL1158178, “Study on the binding interaction between carnitine optical isomer and bovine serum albumin” (Eur J Med Chem, 2008).

Columns and labels:
Albumin [1] = target: T1, Albumin (Bos taurus, UniProt P02769); assay: Binding affinity to bovine serum albumin by fluorescence spectroscopy in presence of Fe3+; format: ADME; settings: cattle, isolated protein
Albumin [2] = target: T1, Albumin; assay: Binding affinity to bovine serum albumin by fluorescence spectroscopy; format: ADME; settings: cattle, isolated protein

T1 sequence (P02769 whole entry): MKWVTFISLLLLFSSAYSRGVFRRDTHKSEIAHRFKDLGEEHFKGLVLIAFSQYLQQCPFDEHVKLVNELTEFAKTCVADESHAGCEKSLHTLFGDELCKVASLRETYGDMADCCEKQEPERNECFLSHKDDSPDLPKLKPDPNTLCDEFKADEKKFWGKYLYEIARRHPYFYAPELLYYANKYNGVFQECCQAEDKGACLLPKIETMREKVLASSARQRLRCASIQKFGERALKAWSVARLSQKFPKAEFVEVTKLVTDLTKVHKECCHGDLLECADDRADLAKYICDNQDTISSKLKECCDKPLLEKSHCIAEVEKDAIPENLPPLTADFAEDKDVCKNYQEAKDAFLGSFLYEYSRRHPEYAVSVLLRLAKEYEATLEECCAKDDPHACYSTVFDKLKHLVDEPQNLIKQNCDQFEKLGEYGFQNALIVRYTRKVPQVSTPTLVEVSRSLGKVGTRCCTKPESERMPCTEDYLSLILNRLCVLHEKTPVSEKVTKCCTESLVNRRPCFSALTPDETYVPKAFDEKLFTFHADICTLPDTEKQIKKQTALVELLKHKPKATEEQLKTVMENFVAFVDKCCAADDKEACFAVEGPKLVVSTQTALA

Row | K (Albumin [1]) [×10⁴ L/mol] | K (Albumin [2]) [×10⁴ L/mol] | Compound
1 | 3.18 | 2.15 | C[N+](C)(C)C[C@@H](O)CC(=O)[O-] [D-CARNITINE]
2 | 2.97 | 2.27 | C[N+](C)(C)C[C@H](O)CC(=O)[O-] [LEVOCARNITINE]
